This note sets out measurements from patent publication EP4778920A1, “INDAZOLONE COMPOUND, PREPARATION METHOD THEREFOR, PHARMACEUTICAL COMPOSITION, AND USE” (Shanghai Institute of Materia Medica, Chinese Academy of …, priority 2023, dated 2025).

Test [1] deals with Mino cells. Kind of test: Mino cell proliferation inhibition (MTS assay). The class given is cell-based. Conditions: Homo sapiens, 72 h, 3 days incubation, read-out: Mino (IC50, Inhibitory Activity of Compounds on Mino Cell Proliferation). The protocol:
The cell concentration was diluted according to a 3-day incubation period, and 90 µL of cell suspension was added to each well of a 96-well plate, resulting in 8,000 cells per well. […] The test compounds were prepared from a 10 mM stock solution and serially diluted in a five-fold gradient. Similarly, 10 µL of the diluted compound solution was added to each compound-treated well (final DMSO concentration 0.2%).
(§1) The cells were incubated in a 37 °C, 5% CO2 incubator for 3 days. After incubation, the reaction solution was prepared according to the MTS assay kit instructions (Promega, G5430), and 20 µL was added to each well. The plate was further incubated at 37 °C with 5% CO2 for 3-4 hours. The absorbance at 490 nm was measured using a microplate reader, and the absorbance at 690 nm was used as the background value. The final raw data were calculated as OD490 - OD690. […] The IC50 values for cell proliferation inhibition were determined using GraphPad Prism 5.0. Each experiment was repeated three times, and three parallel replicates were performed in each experiment to calculate the mean value and standard deviation.
Table 2. Inhibitory Activity of Compounds on Mino Cell Proliferation
For orientation: Formazan colour is commonly taken as a measure of viable cells.

Test [2] has as its system MV-4-11 cells. Description: MV-4-11 cell proliferation inhibition (MTS assay). The class given is cell-based. Conditions: Homo sapiens, MV4-11, 168 h, 7 days incubation, MTS, read-out: MV-411 (IC50, Inhibitory Activity of Compounds on MV-4-11 Cell Proliferation). The protocol: as §1, with “MV-4-11 cells were cultured in IMDM medium supplemented with 10% fetal bovine serum and collected. The cell concentration was diluted according to a 7-day incubation period, and 180 µL of cell suspension was added to each well of a 96-well plate, resulting in 2,000 cells per well. […] The test compounds were prepared from a 10 mM stock solution and serially diluted in a five-fold gradient, and 20 µL of the diluted compound solution was added to each compound-treated well (final DMSO concentration 0.2%). The cells” for “The cells”, “incubator for 7 days. After” for “incubator for 3 days. After”
Table 3. Inhibitory Activity of Compounds on MV-4-11 Cell Proliferation

Test [3] concerns the target CRBN/DDB1 (Homo sapiens, UniProt Q96SW2). Description: CRBN/DDB1 binding TR-FRET assay. Conditions: read-out: AVE_Inhibition% (1 µM). The protocol: • 1. 0.1 µL of the reference solution was added to a 384-well assay plate. The final detection concentration was 100 µM, followed by 3-fold serial dilution for 10 points. • 2. 2.5 µL of CRBN/DDB1 was added to the 384-well plate and centrifuged at 1000 rpm for 1 minute. • 3. 2.5 µL of Thalidomide-BODIPY was added to the plate, centrifuged at 1000 rpm for 1 minute, and incubated at 25 °C for 15 minutes. • 4. 5 µL of His-Tb was added to the plate, centrifuged at 1000 rpm for 1 minute, and incubated at 25 °C for 60 minutes. • 5. The TR-FRET signal was measured using a BMG plate reader with a fluorescence ratio of 520/490 nm.
Table 4. Inhibition Rate of Compounds on CRBN/DDB1 Binding
In general terms: Time-resolved FRET reads energy transfer from a long-lived donor to a nearby acceptor.

In test [4] the test system is MM.1S cells. Kind of test: MM.1S cell proliferation inhibition (MTS assay). It counts as cell-based. Conditions: Homo sapiens, MM1.S, 168 h, 7 days incubation, read-out: MM1.S (IC50, Inhibitory Activity of Compounds on MM.1S Cell Proliferation). The protocol:
The cell concentration was diluted according to a 7-day incubation period, and 180 µL of cell suspension was added to each well of a 96-well plate, with 20,000 cells per well. […] The test compounds were prepared from a 10 mM stock solution and serially diluted in a 5-fold gradient, and 20 µL of the diluted solution was added to each compound-treated well (final DMSO concentration also 0.2%). The cells were incubated in a 37 °C, 5% CO2 incubator for 7 days. After incubation, the reaction solution was prepared according to the MTS assay kit instructions (Promega, G5430), and 20 µL was added to each well. The plate was incubated at 37 °C with 5% CO2 for 3-4 hours. The absorbance at 490 nm was measured using a microplate reader, and the absorbance at 690 nm was used as the background value. […] The IC50 values for cell proliferation inhibition were determined using GraphPad Prism 5.0. Each experiment was repeated three times, and three parallel replicates were performed in each experiment to calculate the mean value and standard deviation.
Inhibitory Activity of Compounds on MM.1S Cell Proliferation

pIC50: −log10 of the molar value.

Sequence of CRBN/DDB1 (Q96SW2 whole entry, species assumed): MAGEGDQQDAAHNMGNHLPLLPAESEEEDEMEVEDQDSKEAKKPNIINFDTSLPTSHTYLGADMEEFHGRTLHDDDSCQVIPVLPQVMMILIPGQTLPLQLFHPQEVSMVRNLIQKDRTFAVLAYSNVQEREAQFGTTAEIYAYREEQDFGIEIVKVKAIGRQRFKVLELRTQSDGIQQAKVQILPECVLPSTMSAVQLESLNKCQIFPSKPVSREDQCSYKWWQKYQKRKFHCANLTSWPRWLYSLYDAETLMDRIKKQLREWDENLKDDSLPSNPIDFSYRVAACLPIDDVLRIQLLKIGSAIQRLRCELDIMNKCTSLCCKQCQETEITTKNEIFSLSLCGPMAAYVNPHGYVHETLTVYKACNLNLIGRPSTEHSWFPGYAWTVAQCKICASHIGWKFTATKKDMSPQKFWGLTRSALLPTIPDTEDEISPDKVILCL
Sequence of CRBN/DDB1 (Q16531 whole entry partner, species assumed): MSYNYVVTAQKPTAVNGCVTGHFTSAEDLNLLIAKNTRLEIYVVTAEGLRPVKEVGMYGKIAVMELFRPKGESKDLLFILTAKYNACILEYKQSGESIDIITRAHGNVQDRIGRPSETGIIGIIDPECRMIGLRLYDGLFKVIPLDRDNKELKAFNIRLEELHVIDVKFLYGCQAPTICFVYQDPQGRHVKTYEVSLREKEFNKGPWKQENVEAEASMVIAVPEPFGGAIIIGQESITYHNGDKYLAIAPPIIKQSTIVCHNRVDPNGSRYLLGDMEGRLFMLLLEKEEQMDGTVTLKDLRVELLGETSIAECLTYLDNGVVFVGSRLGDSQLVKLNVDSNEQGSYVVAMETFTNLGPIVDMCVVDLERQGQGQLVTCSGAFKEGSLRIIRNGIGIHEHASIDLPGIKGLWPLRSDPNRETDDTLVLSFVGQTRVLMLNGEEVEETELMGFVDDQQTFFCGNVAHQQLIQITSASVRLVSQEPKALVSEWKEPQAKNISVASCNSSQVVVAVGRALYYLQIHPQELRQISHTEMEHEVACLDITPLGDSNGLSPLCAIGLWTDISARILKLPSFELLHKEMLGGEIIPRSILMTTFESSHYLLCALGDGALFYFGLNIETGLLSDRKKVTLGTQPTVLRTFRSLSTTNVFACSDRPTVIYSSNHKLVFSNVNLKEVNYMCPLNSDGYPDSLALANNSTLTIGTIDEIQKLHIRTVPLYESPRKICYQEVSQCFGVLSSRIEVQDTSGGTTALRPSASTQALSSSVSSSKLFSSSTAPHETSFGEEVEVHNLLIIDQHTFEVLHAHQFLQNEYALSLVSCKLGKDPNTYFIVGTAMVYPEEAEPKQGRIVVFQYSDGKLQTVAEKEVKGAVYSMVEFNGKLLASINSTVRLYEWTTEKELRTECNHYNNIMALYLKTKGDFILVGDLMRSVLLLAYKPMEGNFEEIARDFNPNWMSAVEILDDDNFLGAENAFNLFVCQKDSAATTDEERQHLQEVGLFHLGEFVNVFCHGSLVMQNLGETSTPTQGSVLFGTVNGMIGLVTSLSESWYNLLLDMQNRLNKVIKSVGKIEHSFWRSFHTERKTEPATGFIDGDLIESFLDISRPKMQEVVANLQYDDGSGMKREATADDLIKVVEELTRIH

As to `Cc1ccc(N2CCN(C(=O)c3ccc(COc4cccc5c(=O)n(C6CCC(=O)NC6=O)[nH]c45)cc3)CC2)c(F)c1` (centres unmarked) [Compound D5, 3-(7-((4-(4-(2-Fluoro-4-methylphenyl)piperazine-1-carbonyl)benzyl)oxy)-3-oxo-1,3-dihydro-2H-indazol-2-yl)piperidine-2,6-dione], the values for the pIC50 in test [1], in test [2] and in test [4] were > 6.70, 4.70 to 6.00 and > 6.70, respectively. In addition, in test [3], the inhibition at 1 µM was in the range of 50 to 90%.

Regarding `CCn1c2c(OCc3ccc(CN4CCN(c5ccc(C#N)cc5F)CC4)cc3)cccc2c(=O)n1C1CCC(=O)NC1=O` (centres unmarked) [Compound D25], the pIC50 in test [1] was < 5.00; in test [2] it was 4.70 to 6.00; in test [4], 5.00 to 6.00. Moreover, the inhibition at 1 µM in test [3] was < 50%.

As to `O=C1CC[C@H](n2[nH]c3cc(CNC(=O)C(F)(F)c4ccc(Cl)cc4)ccc3c2=O)C(=O)N1` [Compound D44, (S)-2-(4-chlorophenyl)-N-((2-(2,6-dioxopiperidin-3-yl)-3-oxo-2,3-dihydro-1H-indazol-6-yl)methyl)-2,2-difluoroacetamide], the values for the pIC50 in test [1], in test [2] and in test [4] were < 5.00, 4.70 to 6.00 and < 5.00, respectively. Moreover, the inhibition at 1 µM in test [3] was < 50%.

On to `O=C1CCC(n2[nH]c3c(OCc4ccc(CN5CCN(c6ccc(Cl)cc6)CC5)cc4)cc(F)cc3c2=O)C(=O)N1` (centres unmarked) [Compound D18, 3-(7-((4-((4-(4-chlorophenyl)piperazin-1-yl)methyl)benzyl)oxy)-5-fluoro-3-oxo-1,3-dihydro-2H-indazol-2-yl)piperidine-2,6-dione], for which the pIC50 in test [1], in test [2] and in test [4] was > 6.70 in each case. Further, the inhibition at 1 µM in test [3] is > 90%.

With `O=C1CCC(n2[nH]c3c(OCc4ccc(CN5CCN(c6ccc(F)cc6)CC5)cc4)cccc3c2=O)C(=O)N1` (centres unmarked) [Compound D10, 3-(7-((4-((4-(4-fluorophenyl)piperazin-1-yl)methyl)benzyl)oxy)-3-oxo-1,3-dihydro-2H-indazol-2-yl)piperidine-2,6-dione], the pIC50 in test [1], in test [2] and in test [4] was > 6.70 each time. In addition, the inhibition at 1 µM in test [3] is > 90%.

In the case of `N#Cc1ccc(N2CCN(C(=O)c3ccc(COc4cccc5c(=O)n(C6CCC(=O)NC6=O)[nH]c45)cc3)CC2)c(F)c1` (centres unmarked) [Compound D4], the pIC50 is > 6.70 in test [1], 4.70 to 6.00 in test [2] and > 6.70 in test [4]. In test [3], the inhibition at 1 µM is > 90%.

For `O=C1CC[C@H](n2[nH]c3c(OCc4ccc(CN5CCOCC5)cc4)cccc3c2=O)C(=O)N1` [Compound D1, (S)-3-(7-((4-(Morpholinomethyl)benzyl)oxy)-3-oxo-1,3-dihydro-2H-indazol-2-yl)piperidine-2,6-dione], the figures for the pIC50 in test [1], in test [2] and in test [4] were 5.00 to 6.00, < 4.70 and > 6.70, respectively. In addition, the inhibition at 1 µM in test [3] was 50 to 90%.

As to `O=C1CCC(n2[nH]c3c(OCc4ccc(CN5CCN(c6ccc(F)cc6)CC5)cc4)cc(F)cc3c2=O)C(=O)N1` (centres unmarked) [Compound D19, 3-(5-Fluoro-7-((4-((4-(4-fluorophenyl)piperazin-1-yl)methyl)benzyl)oxy)-3-oxo-1,3-dihydro-2H-indazol-2-yl)piperidine-2,6-dione], the pIC50 in test [1], in test [2] and in test [4] was > 6.70 throughout. Besides, the inhibition at 1 µM in test [3] is > 90%.

Take `N#Cc1ccc(N2CCC(Sc3ccc(COc4cccc5c(=O)n([C@H]6CCC(=O)NC6=O)[nH]c45)cn3)CC2)c(F)c1` [Compound D3, (S)-4-(4-((5-(((2-(2,6-dioxopiperidin-3-yl)-3-oxo-2,3-dihydro-1H-indazol-7-yl)oxy)methyl)pyridin-2-yl)thio)piperidin-1-yl)-3-fluorobenzonitrile]: the pIC50 in test [1] is > 6.70; in test [2] it was 6.00 to 6.70; in test [4] it was > 6.70.

Consider `O=C1CCC(n2[nH]c3cc(C(=O)N[C@@H](c4ccccc4)C(F)(F)F)ccc3c2=O)C(=O)N1` (stereo partly drawn) [Compound D35, 2-(2,6-dioxopiperidin-3-yl)-3-oxo-N-((S)-2,2,2-trifluoro-1-phenylethyl)-2,3-dihydro-1H-indazole-6-carboxamide], for which the pIC50 is < 5.00 in test [1], < 4.70 in test [2] and < 5.00 in test [4].

In the case of `COc1ccc(-c2ncc(COc3cccc4c(=O)n(C5CCC(=O)NC5=O)[nH]c34)o2)cc1` (centres unmarked) [Compound D28, 3-(7-((2-(4-methoxyphenyl)oxazol-5-yl)methoxy)-3-oxo-1,3-dihydro-2H-indazol-2-yl)piperidine-2,6-dione], the results for the pIC50 in test [1], in test [2] and in test [4] were < 5.00, < 4.70 and 5.00 to 6.00, respectively.

Take `Cn1c2c(OCc3ccc(CN4CCOCC4)cc3)cccc2c(=O)n1C1CCC(=O)NC1=O` (centres unmarked) [Compound D22, 3-(1-Methyl-7-((4-(morpholinomethyl)benzyl)oxy)-3-oxo-1,3-dihydro-2H-indazol-2-yl)piperidine-2,6-dione]: the pIC50 in test [1] is < 5.00; in test [2] it was < 4.70; in test [4], > 6.70.

As to `O=C1CCC(n2[nH]c3c(OCc4ccc(CN5CCN(c6ccc(Cl)cc6Cl)CC5)cc4)cccc3c2=O)C(=O)N1` (centres unmarked) [Compound D12, 3-(7-((4-((4-(2,4-dichlorophenyl)piperazin-1-yl)methyl)benzyl)oxy)-3-oxo-1,3-dihydro-2H-indazol-2-yl)piperidine-2,6-dione], the pIC50 is 6.00 to 6.70 in test [1], > 6.70 in test [2] and > 6.70 in test [4].

For the compound `C[C@H](NC(=O)c1ccc2c(=O)n(C3CCC(=O)NC3=O)[nH]c2c1)c1cccc(Cl)c1` (stereo partly drawn) [Compound D39, N-((S)-1-(3-chlorophenyl)ethyl)-2-(2,6-dioxopiperidin-3-yl)-3-oxo-2,3-dihydro-1H-indazole-6-carboxamide], the pIC50 in test [1] is < 5.00; in test [2], < 4.70; in test [4], < 5.00.

As to `O=C1CC[C@H](n2[nH]c3c(OCc4cnc(-c5ccc(OC(F)(F)F)cc5)o4)cccc3c2=O)C(=O)N1` [Compound D26, (S)-3-(3-Oxo-7-((2-(4-(trifluoromethoxy)phenyl)oxazol-5-yl)methoxy)-1,3-dihydro-2H-indazol-2-yl)piperidine-2,6-dione], the pIC50 was 5.00 to 6.00 in test [1], 4.70 to 6.00 in test [2] and 5.00 to 6.00 in test [4].

For the compound `C[C@@H](NC(=O)c1ccc2c(=O)n(C3CCC(=O)NC3=O)[nH]c2c1)c1ccc(Cl)cc1` (stereo partly drawn) [Compound D34, N-((R)-1-(4-chlorophenyl)ethyl)-2-(2,6-dioxopiperidin-3-yl)-3-oxo-2,3-dihydro-1H-indazole-6-carboxamide], the pIC50 is < 5.00 in test [1], < 4.70 in test [2] and < 5.00 in test [4].
